Assay results published in patent EP0394122A2, “Use of tetracyclines to manufacture a medicament for the treatment and prevention of AIDS” (priority 1989, dated 1990).

Tests used:
[1] = system: reverse transcriptase du virus HIV; test: Reverse transcriptase activity in culture supernatant of infected, protected CEM cells (virus production); format: cell-based
Text: Chaque échantillon est divisé en 2 parties, l'une recevant à nouveau le produit étudié et l'autre cultivée en l'absence de produit.
Les cellules sont cultivées pendant 2 mois.
Les cellules infectées traitées ou non de manière continue par la minocycline ou la doxycycline ont été examinées en ce qui concerne la production de virus. La technique utilisée pour la détermination virale a été celle du dosage de la reverse transcriptase du virus HIV.
L'activité de la reverse transcriptase est mesurée directement sur 50 µl de surnageant de culture. 10 µl de tampon contenant 0,5 M de KCl, 5 mM de dithiotreitol (DTT) et 0,5 % de Triton X-100 sont ajoutés à tous les micropuits contenant les 50 µl de surnageant à tester. 40 µl de tampon contenant 1,25 mM d'éthylène glycol-bis(β-aminoéthyl éther) (EGTA), 0,125 M de Tris.HCl pH 7,8, 12,5 mM de MgCl₂, 3 µCi de (³H) Thymidine triphosphate (TTP), 0,05 DO₂₆₀ d'acide polyadénylique - acide thymidylique (poly rA-oligo dT) sont ajoutés ensuite. La microplaque est couverte au moyen d'un film plastique et incubée 60 minutes à 37°C.
On arrête la réaction en ajoutant 20 µl d'une solution glacée de 120 mM de Na₄P₂O₇ dans 60 % d'acide trichloracétique et les échantillons sont placés 15 minutes sur un lit de glace.
Les précipités sont filtrés sur fibres de verre en utilisant un laveur de cellules (Skatron) et les filtres sont lavés avec une solution de 12 mM de Na₄P₂O₇ dans 5 % d'acide trichloracétique.
Les filtres sont séchés et la radioactivité est comptée après ajout d'un liquide scintillant. Les essais sont faits en triple.

[2] = system: lignée lymphoblastoïde CEM clone 13; test: Cytotoxicity on non-infected CEM clone 13 cells (MTT viability); format: cell-based, humaines
Experimental: Dans une microplaque de 96 puits on dépose 25 µl/puits d'une solution de produit à tester ou de tampon phosphate isotonique (TPI) dans le cas des contrôles. Les produits sont étudiés à différentes concentrations (souvent 8), à raison de 4 puits par concentration. On ajoute alors 125 µl d'une suspension de cellules CEM dans le milieu RPMI contenant 10 % de sérum de veau foetal, 40 U/ml de pénicilline, 40 µg/ml de streptomycine et 5 µg/ml de polybrène (3500 cellules par puits) et les microplaques sont incubées une heure à 37°C, sous une atmosphère contenant 5 % de gaz carbonique. Pour chaque concentration, l'essai est partagé en 2 parties : une partie sur cellules infectées, pour la détermination de l'activité antivirale et l'autre partie sur cellules non infectées, pour déterminer la cytotoxicité des produits. On infecte alors la première série avec HIV (100 µl par puit d'une suspension de virus LAV-1-BRU contenant 200-300 TCID50) tandis que l'autre série reçoit 100 µl de milieu RPMI tel que défini précédemment. Au bout de 7 jours d'incubation, 175 µl de surnageant sont prélevés et rejetés. La viabilité cellulaire est déterminée selon une modification de la technique décrite par R. Pauwels et coll., J. Virol.
Les puits, contenant encore les cellules (infectées ou non infectées), reçoivent 10 µl d'une solution de MTT (méthylthiazoletétrazolium) à 5 mg/ml dans du tampon phosphate isotonique. Pendant une période d'incubation de 4 heures, le MTT est converti en un sel de formazan (bleu) à l'intérieur des cellules vivantes et proportionnellement à leur nombre, alors que rien n'apparaît dans les puits ne contenant plus que des cellules mortes. On ajoute alors 120 µl d'isopropanol (contenant 0,04 mole/l d'acide chlorhydrique) et les microplaques sont agitées jusqu'à la solubilisation du bleu de formazan. L'absorption à 540 nm est lue avec un lecteur automatique de réactions ELISA en microplaques.
Pour les essais de plus longue durée, on procède comme décrit précédemment jusqu'au jour 7. A ce moment, 100 µl de cellules sont prélevés pour mesurer la proportion de cellules vivantes et le restant est remis en culture avec du milieu frais contenant les produits aux mêmes concentrations. Cette opération est répétée tous les 4 jours.

[3] = product present du jour 0 au jour 18 (1,2 µg/ml), day 20 after infection
[4] = product present du jour 0 au jour 18 (1,2 µg/ml), day 39 after infection
[5] = product present du jour 0 au jour 18 (1,2 µg/ml), day 42 after infection
[6] = product present du jour 0 au jour 18 (1,2 µg/ml), day 46 after infection
[7] = product present du jour 0 au jour 18 (1,2 µg/ml), day 49 after infection
[8] = product present du jour 0 au jour 18 (1,2 µg/ml), day 53 after infection
[9] = product present du jour 0 au jour 18 (1,2 µg/ml), day 56 after infection
[10] = product present du jour 0 au jour 18 (1,2 µg/ml), day 60 after infection
[11] = product present du jour 0 au jour 18 (1,2 µg/ml), day 80 after infection
[12] = product present du jour 0 à la fin de l'expérience (1,2 µg/ml), day 20 after infection
[13] = product present du jour 0 à la fin de l'expérience (1,2 µg/ml), day 39 after infection
[14] = product present du jour 0 à la fin de l'expérience (1,2 µg/ml), day 42 after infection
[15] = product present du jour 0 à la fin de l'expérience (1,2 µg/ml), day 46 after infection
[16] = product present du jour 0 à la fin de l'expérience (1,2 µg/ml), day 49 after infection
[17] = product present du jour 0 à la fin de l'expérience (1,2 µg/ml), day 53 after infection
[18] = product present du jour 0 à la fin de l'expérience (1,2 µg/ml), day 56 after infection
[19] = product present du jour 0 à la fin de l'expérience (1,2 µg/ml), day 60 after infection
[20] = product present du jour 0 à la fin de l'expérience (1,2 µg/ml), day 80 after infection

With CN(C)c1ccc(O)c2c1C[C@H]1C[C@H]3[C@H](N(C)C)C(O)=C(C(N)=O)C(=O)[C@@]3(O)C(O)=C1C2=O [Exemple 5, minocycline] the “Activité de la reverse transcriptase” value [1, 3] was 27 coups/mn x 10⁻³, the “Activité de la reverse transcriptase” value [1, 4] was 21 coups/mn x 10⁻³ and the “Activité de la reverse transcriptase” value [1, 5] was 37 coups/mn x 10⁻³. For the same molecule, the “Activité de la reverse transcriptase” value [1, 6] was 19 coups/mn x 10⁻³, the “Activité de la reverse transcriptase” value [1, 7] was 21 coups/mn x 10⁻³ and the “Activité de la reverse transcriptase” value [1, 8] was 17 coups/mn x 10⁻³. The “Activité de la reverse transcriptase” value [1, 9] was 3 coups/mn x 10⁻³, the “Activité de la reverse transcriptase” value [1, 10] was 2 coups/mn x 10⁻³ and the “Activité de la reverse transcriptase” value [1, 11] was 3 coups/mn x 10⁻³. For the same molecule, the “Activité de la reverse transcriptase” value [1, 12] was 25 coups/mn x 10⁻³, the “Activité de la reverse transcriptase” value [1, 13] was 33 coups/mn x 10⁻³ and the “Activité de la reverse transcriptase” value [1, 14] was 33 coups/mn x 10⁻³. The “Activité de la reverse transcriptase” value [1, 15] was 29 coups/mn x 10⁻³, the “Activité de la reverse transcriptase” value [1, 16] was 37 coups/mn x 10⁻³ and the “Activité de la reverse transcriptase” value [1, 17] was 14 coups/mn x 10⁻³. The “Activité de la reverse transcriptase” value [1, 18] was 2 coups/mn x 10⁻³, the “Activité de la reverse transcriptase” value [1, 19] was 2 coups/mn x 10⁻³ and the “Activité de la reverse transcriptase” value [1, 20] was 5 coups/mn x 10⁻³. The “Cellules non infectées Densité optique” value ([2]; 0,01 µg/ml, JOUR 14) was 1,100, the “Cellules non infectées Densité optique” value ([2]; 0,01 µg/ml, JOUR 18) was 1,050 and the “Cellules non infectées Densité optique” value ([2]; 0,01 µg/ml, day 7) was 1,590. For the same molecule, the “Cellules non infectées Densité optique” value ([2]; 0,04 µg/ml, JOUR 14) was 1,250, the “Cellules non infectées Densité optique” value ([2]; 0,04 µg/ml, JOUR 18) was 1,050 and the “Cellules non infectées Densité optique” value ([2]; 0,04 µg/ml, day 7) was 1,650. The “Cellules non infectées Densité optique” value ([2]; 0,12 µg/ml, JOUR 14) was 1,200, the “Cellules non infectées Densité optique” value ([2]; 0,12 µg/ml, JOUR 18) was 1,100 and the “Cellules non infectées Densité optique” value ([2]; 0,12 µg/ml, day 7) was 1,750. For the same molecule, the “Cellules non infectées Densité optique” value ([2]; 0,37 µg/ml, JOUR 14) was 1,250, the “Cellules non infectées Densité optique” value ([2]; 0,37 µg/ml, JOUR 18) was 1,150 and the “Cellules non infectées Densité optique” value ([2]; 0,37 µg/ml, day 7) was 1,670. For the same molecule, the “Cellules non infectées Densité optique” value ([2]; 10 µg/ml, JOUR 14) was 0,100, the “Cellules non infectées Densité optique” value ([2]; 10 µg/ml, JOUR 18) was 0,100 and the “Cellules non infectées Densité optique” value ([2]; 10 µg/ml, day 7) was 0,480. The “Cellules non infectées Densité optique” value ([2]; 30 µg/ml, day 7) was 0,420, the “Cellules non infectées Densité optique” value ([2]; 1,11 µg/ml, JOUR 14) was 1,200 and the “Cellules non infectées Densité optique” value ([2]; 1,11 µg/ml, JOUR 18) was 1,100. For the same molecule, the “Cellules non infectées Densité optique” value ([2]; 1,11 µg/ml, day 7) was 1,760, the “Cellules non infectées Densité optique” value ([2]; 3,33 µg/ml, JOUR 14) was 0,350 and the “Cellules non infectées Densité optique” value ([2]; 3,33 µg/ml, JOUR 18) was 0,400. For the same molecule, the “Cellules non infectées Densité optique” value ([2]; 3,33 µg/ml, day 7) was 1,650.
For doxycycline [Exemple 2], the “Activité de la reverse transcriptase” value [1, 3] was 21 coups/mn x 10⁻³, the “Activité de la reverse transcriptase” value [1, 4] was 30 coups/mn x 10⁻³ and the “Activité de la reverse transcriptase” value [1, 5] was 31 coups/mn x 10⁻³. For the same molecule, the “Activité de la reverse transcriptase” value [1, 6] was 21 coups/mn x 10⁻³, the “Activité de la reverse transcriptase” value [1, 7] was 24 coups/mn x 10⁻³ and the “Activité de la reverse transcriptase” value [1, 8] was 14 coups/mn x 10⁻³. For the same molecule, the “Activité de la reverse transcriptase” value [1, 9] was 2 coups/mn x 10⁻³, the “Activité de la reverse transcriptase” value [1, 10] was 3 coups/mn x 10⁻³ and the “Activité de la reverse transcriptase” value [1, 11] was 2 coups/mn x 10⁻³. The “Activité de la reverse transcriptase” value [1, 12] was 25 coups/mn x 10⁻³, the “Activité de la reverse transcriptase” value [1, 13] was 26 coups/mn x 10⁻³ and the “Activité de la reverse transcriptase” value [1, 14] was 31 coups/mn x 10⁻³. The “Activité de la reverse transcriptase” value [1, 15] was 27 coups/mn x 10⁻³, the “Activité de la reverse transcriptase” value [1, 16] was 18 coups/mn x 10⁻³ and the “Activité de la reverse transcriptase” value [1, 17] was 10 coups/mn x 10⁻³. The “Activité de la reverse transcriptase” value [1, 18] was 2 coups/mn x 10⁻³, the “Activité de la reverse transcriptase” value [1, 19] was 1,4 coups/mn x 10⁻³ and the “Activité de la reverse transcriptase” value [1, 20] was 2 coups/mn x 10⁻³. The “Cellules non infectées Densité optique” value ([2]; 0,01 µg/ml, JOUR 14) was 0,980, the “Cellules non infectées Densité optique” value ([2]; 0,01 µg/ml, JOUR 18) was 1,100 and the “Cellules non infectées Densité optique” value ([2]; 0,01 µg/ml, day 7) was 1,530. For the same molecule, the “Cellules non infectées Densité optique” value ([2]; 0,04 µg/ml, JOUR 14) was 0,950, the “Cellules non infectées Densité optique” value ([2]; 0,04 µg/ml, JOUR 18) was 1,050 and the “Cellules non infectées Densité optique” value ([2]; 0,04 µg/ml, day 7) was 1,34. The “Cellules non infectées Densité optique” value ([2]; 0,12 µg/ml, JOUR 14) was 1,020, the “Cellules non infectées Densité optique” value ([2]; 0,12 µg/ml, JOUR 18) was 1,020 and the “Cellules non infectées Densité optique” value ([2]; 0,12 µg/ml, day 7) was 1,53. For the same molecule, the “Cellules non infectées Densité optique” value ([2]; 0,37 µg/ml, JOUR 14) was 1,000, the “Cellules non infectées Densité optique” value ([2]; 0,37 µg/ml, JOUR 18) was 1,000 and the “Cellules non infectées Densité optique” value ([2]; 0,37 µg/ml, day 7) was 1,60. The “Cellules non infectées Densité optique” value ([2]; 10 µg/ml, JOUR 14) was 0,100, the “Cellules non infectées Densité optique” value ([2]; 10 µg/ml, JOUR 18) was 0,100 and the “Cellules non infectées Densité optique” value ([2]; 10 µg/ml, day 7) was 0,740. For the same molecule, the “Cellules non infectées Densité optique” value ([2]; 30 µg/ml, day 7) was 0,2, the “Cellules non infectées Densité optique” value ([2]; 1,11 µg/ml, JOUR 14) was 0,960 and the “Cellules non infectées Densité optique” value ([2]; 1,11 µg/ml, JOUR 18) was 1,020. For the same molecule, the “Cellules non infectées Densité optique” value ([2]; 1,11 µg/ml, day 7) was 1,50, the “Cellules non infectées Densité optique” value ([2]; 3,33 µg/ml, JOUR 14) was 0,950 and the “Cellules non infectées Densité optique” value ([2]; 3,33 µg/ml, JOUR 18) was 0,950. For the same molecule, the “Cellules non infectées Densité optique” value ([2]; 3,33 µg/ml, day 7) was 1,50.
